Like-named read-outs stand apart in the source and are kept apart here.
How the values were obtained:
[1] = Clinical pharmacokinetic data converted to in vitro concentrations; settings: human, in vivo
Text: Given the different potencies of the JAK inhibitors and different pharmacokinetic properties for each drug, it was sought to test each drug at a relevant range of physiological concentrations based on clinical dosing and reported pharmacokinetic data from repeat dose studies. Reported Cmax values in patient sera were converted to in vitro concentrations and adjusted for reported plasma protein binding.

[2] = test system: phospho-STAT-1, -3 and -5 in purified CD14+ monocytes; assay: Intracellular phospho-STAT-1, -3, -5 by BD PhosphoFlow in purified monocytes; assay type: cell-based, human; design: Monocyte-specific pSTAT1 signaling, inhibition / Monocyte-specific pSTAT3 signaling, inhibition / Monocyte-specific pSTAT5 signaling, inhibition: concentration or dose not given beside the values; settings: purified CD14+ monocytes
Method: Further experiments were performed to look at impacts of JAK inhibitors on STAT phosphorylation in various immune cell subsets.

[3] = cited from earlier work
CAR-T cells = assay: CAR-T cell expansion assay (KIP-1 or CD3/CD28 stimulation); settings: for % viability: CD3/CD28; for % viabili.: CD3/CD28 stimulation; for % viabi.: KIP-1 stimulation
Nalm-6 luc = assay: CAR-T cell killing assay (luciferase viability of tumor cells)
CD19 CAR T cells = assay: CAR T cell cytokine production (Luminex) under CD19 K562, KIP-1 or CD2/3/28 stimulation; settings: 72 h; for IC50: Homo sapiens, T-cell
Method: Cryopreserved healthy donor CLP CD19 CAR T cells were thawed and rested overnight in 100 U/ml of IL-2 at 1×10^6/ml. 2.5×10^5 CD19 CART cells were plated in 96-well RB plate wells in a total volume of 200 μl of R10 culture media. […] CD19 CART cell cytokine production was allowed to proceed through 72 hours in the presence of stimulator and JAKi or steroid. Following 72 h of culture, 100 μl of the cell supernatant of each well were harvested and stored at −80° C. for later Luminex/Bioplex-200 cytokine analysis. Briefly, stored supernatants were thawed and 50 μl of the sample was assayed for cytokines using a ThermoFisher Procarta Plex 19-plex human cytokine assay kit (ThermoFisher, Carlsbad, CA) according to kit manufacturer's instructions and detected using a BioRad Bioplex-200 instrument. The data points generated from the luminex cytokine assay were transferred to a GraphPad PRISM IC50 dose-response curve analysis to generate IC50 or potency values for the JAKi's and steroids tested.

[4] = CAR T cell-derived supernatant, 30 min

CC[C@@H]1CN(C(=O)NCC(F)(F)F)C[C@@H]1c1cnc2cnc3[nH]ccc3n12 [upadacitinib]
PPB adj. in Vitro concentration [1]: 97 nM
clinically relevant dose level (in vitro concentration) [1]: ~100 nM
Monocyte-specific pSTAT1 signaling, inhibition [2, 4]: 100%
Monocyte-specific pSTAT3 signaling, inhibition [2, 4]: 100%
Monocyte-specific pSTAT5 signaling, inhibition [2, 4]: 63%
Monocyte-specific pSTAT1 signaling, inhibition ([2]; rh-GM-CSF-induced): na/ni
Monocyte-specific pSTAT3 signaling, inhibition ([2]; rh-GM-CSF-induced): na/ni
Monocyte-specific pSTAT5 signaling, inhibition ([2]; rh-GM-CSF-induced): 54%
Monocyte-specific pSTAT1 signaling, inhibition ([2]; rhIFNg-induced): 100%
Monocyte-specific pSTAT3 signaling, inhibition ([2]; rhIFNg-induced): 100%
Monocyte-specific pSTAT5 signaling, inhibition ([2]; rhIFNg-induced): 100%
Monocyte-specific pSTAT1 signaling, inhibition ([2]; rhIL6-induced): na/ni
Monocyte-specific pSTAT3 signaling, inhibition ([2]; rhIL6-induced): 100%
Monocyte-specific pSTAT5 signaling, inhibition ([2]; rhIL6-induced): na/ni
Cmax ([3]; clinical dosing, patient sera, repeat dose studies): 73.9 ng/mL
Protein binding ([3]; plasma protein binding, reported): ~50%
% viability (CAR-T cells; dose 50 nM, day 4): 74.4%
% viability (CAR-T cells; dose 50 nM, day 8): 69.5%
% viability (CAR-T cells; dose 50 nM, day 12): 80.6%
% viability (CAR-T cells; dose 100 nM, day 4): 64.1%
% viability (CAR-T cells; dose 100 nM, day 8): 69.2%
% viability (CAR-T cells; dose 100 nM, day 12): 66.4%
% viabili. (CAR-T cells; 10 nM, Day 0): 84%
% viabili. (CAR-T cells; 10 nM, Day 4): 92.6%
% viabili. (CAR-T cells; 10 nM, Day 8): 88.4%
% viabili. (CAR-T cells; 10 nM, Day 12): 71.6%
% viabili. (CAR-T cells; 20 nM, Day 0): 84%
% viabili. (CAR-T cells; 20 nM, Day 4): 93.8%
% viabili. (CAR-T cells; 20 nM, Day 8): 92%
% viabili. (CAR-T cells; 20 nM, Day 12): 72.7%
% viabili. (CAR-T cells; 40 nM, Day 0): 84%
% viabili. (CAR-T cells; 40 nM, Day 4): 91.4%
% viabili. (CAR-T cells; 40 nM, Day 8): 77%
% viabili. (CAR-T cells; 40 nM, Day 12): 73.2%
% viabili. (CAR-T cells; 60 nM, Day 0): 84%
% viabili. (CAR-T cells; 60 nM, Day 4): 90.6%
% viabili. (CAR-T cells; 60 nM, Day 8): 90.5%
% viabili. (CAR-T cells; 60 nM, Day 12): 76.3%
% viabili. (CAR-T cells; 80 nM, Day 0): 84%
% viabili. (CAR-T cells; 80 nM, Day 4): 88.3%
% viabili. (CAR-T cells; 80 nM, Day 8): 86.4%
% viabili. (CAR-T cells; 80 nM, Day 12): 75%
% viabili. (CAR-T cells; 100 nM, Day 0): 84%
% viabili. (CAR-T cells; 100 nM, Day 4): 84.2%
% viabili. (CAR-T cells; 100 nM, Day 8): 84.3%
% viabili. (CAR-T cells; 100 nM, Day 12): 72.5%
% viabi. (CAR-T cells; 10 nM, Day 0): 84%
% viabi. (CAR-T cells; 10 nM, Day 4): 85.2%
% viabi. (CAR-T cells; 10 nM, Day 8): 72.1%
% viabi. (CAR-T cells; 10 nM, Day 12): 72.7%
% viabi. (CAR-T cells; 20 nM, Day 0): 84%
% viabi. (CAR-T cells; 20 nM, Day 4): 82.1%
% viabi. (CAR-T cells; 20 nM, Day 8): 70.1%
% viabi. (CAR-T cells; 20 nM, Day 12): 74.8%
% viabi. (CAR-T cells; 40 nM, Day 0): 84%
% viabi. (CAR-T cells; 40 nM, Day 4): 79.3%
% viabi. (CAR-T cells; 40 nM, Day 8): 59.3%
% viabi. (CAR-T cells; 40 nM, Day 12): 73.8%
% viabi. (CAR-T cells; 60 nM, Day 0): 84%
% viabi. (CAR-T cells; 60 nM, Day 4): 67.9%
% viabi. (CAR-T cells; 60 nM, Day 8): 76.4%
% viabi. (CAR-T cells; 60 nM, Day 12): 68.9%
% viabi. (CAR-T cells; 80 nM, Day 0): 84%
% viabi. (CAR-T cells; 80 nM, Day 4): 70.9%
% viabi. (CAR-T cells; 80 nM, Day 8): 68.8%
% viabi. (CAR-T cells; 80 nM, Day 12): 62.5%
% viabi. (CAR-T cells; 100 nM, Day 0): 84%
% viabi. (CAR-T cells; 100 nM, Day 4): 59.3%
% viabi. (CAR-T cells; 100 nM, Day 8): 60.9%
% viabi. (CAR-T cells; 100 nM, Day 12): 61.7%
concentration at and above which severe effects on expansion were seen (CAR-T cells; further dose titrations, depending on the mode of stimulation): 20 to 40 nM
Mean tumor cell death (%) (Nalm-6 luc; E:T ratio 1:1, dose 10 nM): 96.9%
Mean tumor cell death (%) (Nalm-6 luc; E:T ratio 1:1, dose 20 nM): 96.3%
Mean tumor cell death (%) (Nalm-6 luc; E:T ratio 1:1, dose 40 nM): 96.3%
Mean tumor cell death (%) (Nalm-6 luc; E:T ratio 1:1, dose 60 nM): 94.5%
Mean tumor cell death (%) (Nalm-6 luc; E:T ratio 1:1, dose 80 nM): 94.4%
Mean tumor cell death (%) (Nalm-6 luc; E:T ratio 1:1, dose 100 nM): 92%
Mean tumor cell death (%) (Nalm-6 luc; E:T ratio 1:3, dose 10 nM): 68.1%
Mean tumor cell death (%) (Nalm-6 luc; E:T ratio 1:3, dose 20 nM): 66.1%
Mean tumor cell death (%) (Nalm-6 luc; E:T ratio 1:3, dose 40 nM): 60.5%
Mean tumor cell death (%) (Nalm-6 luc; E:T ratio 1:3, dose 60 nM): 46.2%
Mean tumor cell death (%) (Nalm-6 luc; E:T ratio 1:3, dose 80 nM): 46.5%
Mean tumor cell death (%) (Nalm-6 luc; E:T ratio 1:3, dose 100 nM): 25.7%
Mean tumor cell death (%) (Nalm-6 luc; E:T ratio 1:9, dose 10 nM): 35.6%
Mean tumor cell death (%) (Nalm-6 luc; E:T ratio 1:9, dose 20 nM): 25.6%
Mean tumor cell death (%) (Nalm-6 luc; E:T ratio 1:9, dose 40 nM): 34.7%
Mean tumor cell death (%) (Nalm-6 luc; E:T ratio 1:9, dose 60 nM): 33.4%
Mean tumor cell death (%) (Nalm-6 luc; E:T ratio 1:9, dose 80 nM): 23%
Mean tumor cell death (%) (Nalm-6 luc; E:T ratio 1:9, dose 100 nM): 16.9%
IC50 (CD19 CAR T cells; read-out: Suppression of cytokine production, GMCSF (IC50), CD3/CD28 stimulation, 72 h): < 100 nM
IC50 (CD19 CAR T cells; read-out: Suppression of cytokine production, GMCSF (IC50), K562-CD19 stimulation, 72 h): > 10000 nM
IC50 (CD19 CAR T cells; read-out: Suppression of cytokine production, GMCSF (IC50), KIP-1 stimulation, 72 h): < 100 nM
IC50 (CD19 CAR T cells; read-out: Suppression of cytokine production, GzB (IC50), CD3/CD28 stimulation, 72 h): < 100 nM
IC50 (CD19 CAR T cells; read-out: Suppression of cytokine production, GzB (IC50), K562-CD19 stimulation, 72 h): 1030 nM
IC50 (CD19 CAR T cells; read-out: Suppression of cytokine production, GzB (IC50), KIP-1 stimulation, 72 h): > 10000 nM
IC50 (CD19 CAR T cells; read-out: Suppression of cytokine production, IFNg (IC50), CD3/CD28 stimulation, 72 h): > 10000 nM
IC50 (CD19 CAR T cells; read-out: Suppression of cytokine production, IFNg (IC50), KIP-1 stimulation, 72 h): > 10000 nM
IC50 (CD19 CAR T cells; read-out: Suppression of cytokine production, IL-2Ra (IC50), CD3/CD28 stimulation, 72 h): < 100 nM
IC50 (CD19 CAR T cells; read-out: Suppression of cytokine production, IL-2Ra (IC50), K562-CD19 stimulation, 72 h): < 100 nM
IC50 (CD19 CAR T cells; read-out: Suppression of cytokine production, IL-2Ra (IC50), KIP-1 stimulation, 72 h): < 100 nM
IC50 (CD19 CAR T cells; read-out: Suppression of cytokine production, IL-6 (IC50), CD3/CD28 stimulation, 72 h): < 100 nM
IC50 (CD19 CAR T cells; read-out: Suppression of cytokine production, IL-6 (IC50), KIP-1 stimulation, 72 h): < 100 nM
IC50 (CD19 CAR T cells; read-out: Suppression of cytokine production, IL-8 (IC50), CD3/CD28 stimulation, 72 h): < 100 nM
IC50 (CD19 CAR T cells; read-out: Suppression of cytokine production, IL-8 (IC50), K562-CD19 stimulation, 72 h): < 100 nM
IC50 (CD19 CAR T cells; read-out: Suppression of cytokine production, IL-8 (IC50), KIP-1 stimulation, 72 h): < 100 nM
IC50 (CD19 CAR T cells; read-out: Suppression of cytokine production, IL-10 (IC50), CD3/CD28 stimulation, 72 h): < 100 nM
IC50 (CD19 CAR T cells; read-out: Suppression of cytokine production, IL-10 (IC50), K562-CD19 stimulation, 72 h): < 100 nM
IC50 (CD19 CAR T cells; read-out: Suppression of cytokine production, IL-10 (IC50), KIP-1 stimulation, 72 h): < 100 nM
IC50 (CD19 CAR T cells; read-out: Suppression of cytokine production, MCP-1 (IC50), CD3/CD28 stimulation, 72 h): < 100 nM
IC50 (CD19 CAR T cells; read-out: Suppression of cytokine production, MCP-1 (IC50), K562-CD19 stimulation, 72 h): < 100 nM
IC50 (CD19 CAR T cells; read-out: Suppression of cytokine production, MCP-1 (IC50), KIP-1 stimulation, 72 h): < 100 nM
IC50 (CD19 CAR T cells; read-out: Suppression of cytokine production, MIG (IC50), CD3/CD28 stimulation, 72 h): < 100 nM
IC50 (CD19 CAR T cells; read-out: Suppression of cytokine production, MIG (IC50), K562-CD19 stimulation, 72 h): < 100 nM
IC50 (CD19 CAR T cells; read-out: Suppression of cytokine production, MIG (IC50), KIP-1 stimulation, 72 h): < 100 nM
IC50 (CD19 CAR T cells; read-out: Suppression of cytokine production, MIP-1a (IC50), CD3/CD28 stimulation, 72 h): < 100 nM
IC50 (CD19 CAR T cells; read-out: Suppression of cytokine production, MIP-1a (IC50), K562-CD19 stimulation, 72 h): < 100 nM
IC50 (CD19 CAR T cells; read-out: Suppression of cytokine production, MIP-1a (IC50), KIP-1 stimulation, 72 h): 708 nM
IC50 (CD19 CAR T cells; read-out: Suppression of cytokine production, MIP-1b (IC50), CD3/CD28 stimulation, 72 h): < 100 nM
IC50 (CD19 CAR T cells; read-out: Suppression of cytokine production, MIP-1b (IC50), K562-CD19 stimulation, 72 h): < 100 nM
IC50 (CD19 CAR T cells; read-out: Suppression of cytokine production, MIP-1b (IC50), KIP-1 stimulation, 72 h): 146 nM
IC50 (CD19 CAR T cells; read-out: Suppression of cytokine production, Perforin (IC50), CD3/CD28 stimulation, 72 h): < 100 nM
IC50 (CD19 CAR T cells; read-out: Suppression of cytokine production, Perforin (IC50), K562-CD19 stimulation, 72 h): < 100 nM
IC50 (CD19 CAR T cells; read-out: Suppression of cytokine production, Perforin (IC50), KIP-1 stimulation, 72 h): < 100 nM
IC50 (CD19 CAR T cells; read-out: Suppression of cytokine production, TNFa (IC50), CD3/CD28 stimulation, 72 h): < 100 nM
IC50 (CD19 CAR T cells; read-out: Suppression of cytokine production, TNFa (IC50), K562-CD19 stimulation, 72 h): < 100 nM
IC50 (CD19 CAR T cells; read-out: Suppression of cytokine production, TNFa (IC50), KIP-1 stimulation, 72 h): < 100 nM
Suppression of cytokine production, IFNg (IC50) (CD19 CAR T cells; K562-CD19 stimulation): Suppress
Suppression of cytokine production, IL-6 (IC50) (CD19 CAR T cells; K562-CD19 stimulation): Suppress

Reference: patent publication US12252701B2, “Chimeric antigen receptor T cell therapy” (KITE PHARMA, INC., priority 2020, dated 2025)
